Results: ChEMBL document CHEMBL3431459, “Roche carnitine palmitoyltransferase modulator screening data (supplementary data associated with the publication CHEMBL2216752)”
≈ marks a conversion by molar mass, not a printed value.

Tests used:
[1] = target: T1, Carnitine O-palmitoyltransferase 1, muscle isoform (Homo sapiens, UniProt Q92523); test: SUPPLEMENTARY: Inhibition of Carnitine palmitoyltransferase 1, muscle isoform; design: species or system Muscle tissue
T1 sequence (Q92523 whole entry): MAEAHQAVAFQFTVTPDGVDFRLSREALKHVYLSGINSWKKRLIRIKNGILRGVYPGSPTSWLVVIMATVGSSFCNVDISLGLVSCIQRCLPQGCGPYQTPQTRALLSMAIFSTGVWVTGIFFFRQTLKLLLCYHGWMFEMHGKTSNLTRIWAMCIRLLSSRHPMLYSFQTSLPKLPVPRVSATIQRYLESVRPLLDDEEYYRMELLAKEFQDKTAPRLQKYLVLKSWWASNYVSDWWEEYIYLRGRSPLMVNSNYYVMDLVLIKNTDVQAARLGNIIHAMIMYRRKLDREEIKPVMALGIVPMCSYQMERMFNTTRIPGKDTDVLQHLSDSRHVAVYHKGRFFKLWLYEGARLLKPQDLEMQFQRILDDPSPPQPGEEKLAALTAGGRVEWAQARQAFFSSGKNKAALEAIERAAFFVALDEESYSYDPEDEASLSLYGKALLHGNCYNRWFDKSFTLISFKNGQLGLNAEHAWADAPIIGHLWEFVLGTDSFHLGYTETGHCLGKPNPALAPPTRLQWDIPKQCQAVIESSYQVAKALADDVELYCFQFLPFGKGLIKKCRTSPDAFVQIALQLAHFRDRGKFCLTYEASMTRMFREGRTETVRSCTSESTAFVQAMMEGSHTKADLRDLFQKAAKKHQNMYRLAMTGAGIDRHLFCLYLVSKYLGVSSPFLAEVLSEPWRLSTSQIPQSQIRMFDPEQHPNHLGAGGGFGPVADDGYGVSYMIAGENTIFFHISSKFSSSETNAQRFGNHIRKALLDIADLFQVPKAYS

[2] = target: T2, Carnitine O-palmitoyltransferase 2, mitochondrial (Homo sapiens, UniProt P23786); test: (§1) SUPPLEMENTARY: Inhibition of Carnitine palmitoyltransferase 2
T2 sequence (P23786 whole entry): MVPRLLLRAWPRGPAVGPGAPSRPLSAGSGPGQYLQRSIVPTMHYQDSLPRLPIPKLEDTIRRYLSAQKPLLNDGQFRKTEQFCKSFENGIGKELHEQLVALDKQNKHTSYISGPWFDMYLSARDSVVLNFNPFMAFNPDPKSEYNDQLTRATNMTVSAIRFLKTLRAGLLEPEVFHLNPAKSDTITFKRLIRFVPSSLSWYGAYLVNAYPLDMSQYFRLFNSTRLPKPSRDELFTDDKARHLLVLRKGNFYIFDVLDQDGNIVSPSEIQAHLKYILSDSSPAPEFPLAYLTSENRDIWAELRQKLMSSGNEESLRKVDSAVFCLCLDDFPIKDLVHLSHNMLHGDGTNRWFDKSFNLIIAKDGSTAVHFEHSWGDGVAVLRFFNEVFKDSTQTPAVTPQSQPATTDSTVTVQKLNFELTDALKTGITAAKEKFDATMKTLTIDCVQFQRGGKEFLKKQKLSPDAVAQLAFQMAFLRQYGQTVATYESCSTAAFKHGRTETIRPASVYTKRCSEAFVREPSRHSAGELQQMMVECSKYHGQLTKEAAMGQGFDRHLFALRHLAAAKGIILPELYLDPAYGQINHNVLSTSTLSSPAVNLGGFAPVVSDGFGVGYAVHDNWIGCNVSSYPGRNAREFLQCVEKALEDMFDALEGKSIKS

[3] = target: T3, Carnitine O-palmitoyltransferase 2, mitochondrial (Rattus norvegicus, UniProt P18886); test: as §1
T3 sequence (P18886 whole entry): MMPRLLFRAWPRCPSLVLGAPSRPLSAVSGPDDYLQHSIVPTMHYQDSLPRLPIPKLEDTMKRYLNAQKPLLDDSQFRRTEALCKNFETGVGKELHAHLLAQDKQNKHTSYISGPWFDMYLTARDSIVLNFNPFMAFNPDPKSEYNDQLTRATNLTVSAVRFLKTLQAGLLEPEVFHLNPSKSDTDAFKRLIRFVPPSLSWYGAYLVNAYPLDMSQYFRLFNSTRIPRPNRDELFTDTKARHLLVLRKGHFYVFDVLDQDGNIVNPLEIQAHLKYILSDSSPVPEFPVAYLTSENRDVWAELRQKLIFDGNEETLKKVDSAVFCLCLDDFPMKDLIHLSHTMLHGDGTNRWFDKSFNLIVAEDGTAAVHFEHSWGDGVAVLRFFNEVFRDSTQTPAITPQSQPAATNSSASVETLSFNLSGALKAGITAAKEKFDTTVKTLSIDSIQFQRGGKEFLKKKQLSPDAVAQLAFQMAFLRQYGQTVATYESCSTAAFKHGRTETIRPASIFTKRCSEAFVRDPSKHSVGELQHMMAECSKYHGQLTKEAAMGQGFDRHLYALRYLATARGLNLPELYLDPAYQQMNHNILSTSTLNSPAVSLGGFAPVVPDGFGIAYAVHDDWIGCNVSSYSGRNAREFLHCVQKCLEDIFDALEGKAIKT

[4] = target: T4, Carnitine O-palmitoyltransferase 1, liver isoform (Homo sapiens, UniProt P50416); test: (§2) SUPPLEMENTARY: Inhibition of Carnitine palmitoyltransferase 1, liver isoform
T4 sequence (P50416 whole entry): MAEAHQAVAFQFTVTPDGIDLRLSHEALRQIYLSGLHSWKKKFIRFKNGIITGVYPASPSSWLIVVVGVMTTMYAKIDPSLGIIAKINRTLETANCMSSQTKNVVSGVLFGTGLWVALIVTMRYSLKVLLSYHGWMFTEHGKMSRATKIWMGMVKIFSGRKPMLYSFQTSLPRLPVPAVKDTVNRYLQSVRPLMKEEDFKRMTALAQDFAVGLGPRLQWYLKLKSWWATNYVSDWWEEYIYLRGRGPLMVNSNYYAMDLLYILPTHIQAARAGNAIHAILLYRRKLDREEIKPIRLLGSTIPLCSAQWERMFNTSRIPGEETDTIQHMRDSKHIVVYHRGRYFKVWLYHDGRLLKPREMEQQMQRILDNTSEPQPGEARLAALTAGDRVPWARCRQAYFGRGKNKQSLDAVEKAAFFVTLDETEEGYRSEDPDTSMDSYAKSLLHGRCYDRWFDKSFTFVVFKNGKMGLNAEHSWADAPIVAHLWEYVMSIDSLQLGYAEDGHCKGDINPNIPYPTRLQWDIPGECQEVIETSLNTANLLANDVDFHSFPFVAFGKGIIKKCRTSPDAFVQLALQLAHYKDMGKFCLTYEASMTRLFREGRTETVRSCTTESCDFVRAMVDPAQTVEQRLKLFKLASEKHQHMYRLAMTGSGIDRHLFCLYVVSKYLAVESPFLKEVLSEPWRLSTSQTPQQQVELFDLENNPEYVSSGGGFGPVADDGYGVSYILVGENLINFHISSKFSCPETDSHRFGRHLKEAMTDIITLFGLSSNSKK

[5] = target: T5, Carnitine O-palmitoyltransferase 1, liver isoform (Rattus norvegicus, UniProt P32198); test: as §2
T5 sequence (P32198 whole entry): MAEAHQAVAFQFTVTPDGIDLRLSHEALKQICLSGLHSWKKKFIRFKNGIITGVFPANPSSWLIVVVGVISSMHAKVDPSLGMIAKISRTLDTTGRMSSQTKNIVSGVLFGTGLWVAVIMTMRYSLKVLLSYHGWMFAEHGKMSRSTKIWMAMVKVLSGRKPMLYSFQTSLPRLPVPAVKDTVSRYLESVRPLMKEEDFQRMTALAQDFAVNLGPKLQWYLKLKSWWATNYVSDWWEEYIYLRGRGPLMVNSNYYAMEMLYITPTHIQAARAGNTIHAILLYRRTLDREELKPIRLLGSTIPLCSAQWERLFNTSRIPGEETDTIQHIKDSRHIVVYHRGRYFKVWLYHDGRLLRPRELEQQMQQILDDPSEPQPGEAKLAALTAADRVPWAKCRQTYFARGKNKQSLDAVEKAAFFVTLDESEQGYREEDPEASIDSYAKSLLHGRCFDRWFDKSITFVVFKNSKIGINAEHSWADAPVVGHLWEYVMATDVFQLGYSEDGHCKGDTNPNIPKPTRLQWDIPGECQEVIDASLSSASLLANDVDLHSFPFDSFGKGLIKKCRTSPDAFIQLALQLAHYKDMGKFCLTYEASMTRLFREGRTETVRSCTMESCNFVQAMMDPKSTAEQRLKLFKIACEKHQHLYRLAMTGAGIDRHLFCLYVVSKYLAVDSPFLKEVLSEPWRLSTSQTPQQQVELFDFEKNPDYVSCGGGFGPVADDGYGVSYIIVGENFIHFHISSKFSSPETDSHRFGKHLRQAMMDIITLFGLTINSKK

[6] = SUPPLEMENTARY: Lyophilisation Solubility Assay (LYSA); type: physicochemical; conditions: read-out: Kinetic_solubility
[7] = SUPPLEMENTARY: Lipophilicity (log D) Determination by high-throughput shake-flask; type: physicochemical; conditions: octanol/water
[8] = SUPPLEMENTARY: PAMPA permeability assay; type: physicochemical; conditions: read-out: Permeability

Row | IC50 [1] [µM] | IC50 [2] [µM] | IC50 [3] [µM] | IC50 [4] [nM] | IC50 [5] [nM] | solubility kinetic [6] [µg/mL] | logD [7] | Papp [8] [×10⁻⁶ cm/s] | Compound
1 | > 100 | 51.5 | > 100 | 96.3 | 456 | 40 (≈ 89.6 µM) | 2.42 | 4.87 | O=C(COc1ccccc1)N1CCCC[C@@H]1c1nc(-c2cccc(-n3cn[nH]c3=O)c2)no1
2 | > 100 | > 100 | 88.7 | 83.4 | 337 | 275 (≈ 723 µM) | 1.9 | 5.39 | O=C(COc1ccccc1)N1CCCC[C@@H]1c1nc(-c2cc[nH]c(=O)c2)no1
3 | 1.54 | 83.9 | > 100 | 203 | 118 | 226 (≈ 472 µM) | 0.79 | 2.82 | COc1ccc(C)cc1S(=O)(=O)n1ccc2ccc(C(=O)Nc3ccc(CC(=O)O)cc3)cc21
4 | > 100 | > 100 | > 100 | 88.8 | 62.1 | < 1 | 3.09 | 3.86 | O=C1CCCN1c1cccc(-c2noc([C@H]3CCCCN3C(=O)COc3ccccc3)n2)c1
5 | > 100 | > 100 | > 100 | 239 | 598 | 77 (≈ 193 µM) | 2.77 | 1.72 | O=C(COc1ccccc1)N1CCCC[C@@H]1c1nc(-c2ccc(F)c(F)c2)n[nH]1
6 | 1.56 | > 100 | > 100 | 80.5 | 110 | 382 (≈ 690 µM) | -0.18 | 1.28 | COc1ccc(Cl)cc1S(=O)(=O)N(C)c1cc(C(=O)Nc2nc(CC(=O)O)cs2)cc2c1OCCO2
7 | 2.28 | 9.73 | 16 | 208 | 182 | > 697 | 0.09 | 1.66 | COc1ccc(Cl)cc1S(=O)(=O)N1COc2ccc(C(=O)Nc3ccc(C(=O)O)c(Cl)c3)cc21
8 | 0.601 | > 100 | > 100 | 40.7 | 25.8 | 260 (≈ 544 µM) | 0.34 | 2.91 | O=C(O)Cc1csc(NC(=O)c2ccc3c(c2)N(S(=O)(=O)c2cccc(Cl)c2)CC3)n1
9 | 39 | 65 | 94.4 | 136 | 388 | 38 (≈ 91.3 µM) | 2.51 | 5.4 | O=C1Cc2cc(-c3noc(C4C5CC5CN4C(=O)COc4ccccc4)n3)ccc2N1 (configuration not stated)
10 | 35.5 | 24.3 | 33.6 | 90.2 | 238 | 109 (≈ 270 µM) | 2.36 | 3.53 | O=C(COc1ccccc1)N1CCCC[C@@H]1c1noc(-c2cnc3[nH]cnc3c2)n1
11 | > 100 | > 100 | > 100 | 156 | 555 | 94 (≈ 256 µM) | 2.16 | 9.41 | Cn1ccc(-c2nc([C@H]3CCCCN3C(=O)COc3ccccc3)no2)n1
12 | 0.75 | > 100 | > 100 | 150 | 84.7 | 565 (≈ 1060 µM) | 0.47 | 2.79 | COc1ccc(Cl)cc1S(=O)(=O)N1CCOc2c(F)cc(C(=O)Nc3ccc(CC(=O)O)cc3)cc21
13 | 8.03 | 5.56 | 15.7 | 204 | 103 | 45 (≈ 76.9 µM) | -0.37 | 0.06 | COc1ccc(Cl)cc1S(=O)(=O)N1CCS(=O)(=O)c2ccc(C(=O)Nc3ccc(C(=O)O)c(Cl)c3)cc21
14 | 42.2 | 32 | 72.2 | 167 | 79.5 | 9 (≈ 17.7 µM) | 2.77 | 1.99 | O=C(Nc1ccc(C(=O)O)c(F)c1)c1ccc2c(c1)N(S(=O)(=O)c1cccc(C(F)(F)F)c1)CC2
